Results published in ChEMBL document CHEMBL4680289, “10-(4-Phenylpiperazine-1-carbonyl)acridin-9(10H)-ones and related compounds: Synthesis, antiproliferative activity and inhibition of tubulin polymerization” (Bioorg Med Chem Lett, 2021).

Experiments:
K562 [1] = test: Induction of apoptosis in human K562 cells assessed as late apoptotic cells at 0.1 uM measured after 72 hrs by Annexin V-FITC/7-AAD staining based flow cytometric analysis relative to control; format: functional
K562 [2] = test: Induction of apoptosis in human K562 cells assessed as necrotic cells at 0.1 uM measured after 6 hrs by Annexin V-FITC/7-AAD staining based flow cytometric analysis relative to control; format: functional
K562 [3] = test: Induction of apoptosis in human K562 cells assessed as necrotic cells at 1 micromol/L measured after 48 hrs by Annexin V-FITC/7-AAD staining based flow cytometric analysis (reference value: 0.46 %); format: functional; conditions: dose 1 µmol/L, at 1 µM
K562 [4] = test: Induction of apoptosis in human K562 cells assessed as early apoptotic cells at 0.1 micromol/L measured after 48 hrs by Annexin V-FITC/7-AAD staining based flow cytometric analysis (reference value: 4.2 %); format: functional; conditions: dose 0.1 µmol/L, at 0.1 µM
K562 [5] = test: Cell cycle arrest in human K562 cells assessed as increase in cell accumulation at G2/M phase measured after 18 hrs by propidium iodide/RNase FACSCalibur staining based flow cytometry; format: functional; conditions: dose 0.003-1 µmol/L
K562 [6] = test: Induction of apoptosis in human K562 cells assessed as viable cells at 1 micromol/L measured after 48 hrs by Annexin V-FITC/7-AAD staining based flow cytometric analysis (reference value: 92.85 %); format: functional; conditions: K562, 48 h, dose 1 µmol/L, read-out: Activity
K562 [7] = test: Induction of apoptosis in human K562 cells assessed as early apoptotic cells at 0.1 uM measured after 12 hrs by Annexin V-FITC/7-AAD staining based flow cytometric analysis relative to control; format: functional
K562 [8] = test: Induction of apoptosis in human K562 cells assessed as early apoptotic cells at 0.1 uM measured after 6 hrs by Annexin V-FITC/7-AAD staining based flow cytometric analysis relative to control; format: functional
K562 [9] = test: Induction of apoptosis in human K562 cells assessed as early apoptotic cells at 0.1 uM measured after 24 hrs by Annexin V-FITC/7-AAD staining based flow cytometric analysis relative to control; format: functional
K562 [10] = test: Induction of apoptosis in human K562 cells assessed as late apoptotic cells at 0.1 uM measured after 6 hrs by Annexin V-FITC/7-AAD staining based flow cytometric analysis relative to control; format: functional
[11] = Inhibition of porcine brain tubulin polymerization assessed as reduction in tubulin assembly at 37 degreeC measured after 40 mins in presence of GTP by turbidimetric analysis; design: species or system Sus scrofa
K562 [12] = test: Induction of apoptosis in human K562 cells assessed as early apoptotic cells at 0.03 micromol/L measured after 48 hrs by Annexin V-FITC/7-AAD staining based flow cytometric analysis (reference value: 4.2 %); format: functional; conditions: dose 0.03 µmol/L, at 0.03 µM
K562 [13] = test: Induction of apoptosis in human K562 cells assessed as viable cells at 0.1 uM measured after 12 hrs by Annexin V-FITC/7-AAD staining based flow cytometric analysis relative to control; format: functional; conditions: read-out: Activity
K562 [14] = test: Induction of apoptosis in human K562 cells assessed as necrotic cells at 0.1 uM measured after 12 hrs by Annexin V-FITC/7-AAD staining based flow cytometric analysis relative to control; format: functional

IC50 [11]: 350 nM
Compound: COc1cc(OC)cc(N2CCN(C(=O)n3c4ccccc4c(=O)c4ccccc43)CC2)c1
Activity (K562 [1]): 65.69%
Activity (K562 [2]): 0.24%
Activity (K562 [3]): 0.35%
Activity (K562 [4]): 26.08%
Activity (K562 [5]): Dose-dependent effect
viability at 1 µM (K562 [6]): 41%
Activity (K562 [7]): 9.02%
Activity (K562 [8]): 4.84%
Activity (K562 [9]): 26.44%
Activity (K562 [10]): 3.3%
Activity (K562 [12]): 21.52%
viability at 0.1 µM (K562 [13]): 87.8%
Activity (K562 [14]): 0.29%
